The data set can be described thus: Wetting angle (contact angle) of the API by goniometer. The data set is classed as physicochemical. As to conditions: advancing contact angle, water, 22° C., about 34% RH; accuracy about ±2°; ditosylate monohydrate. Here is the method:
Alternatively, the above described necessities can be complied with if the active pharmaceutical ingredient used in the preparation of the pharmaceutical composition has a low wetting angle (also: contact angle). The contact angle is a measure of the wettability, that is the lower the contact angle of a given substance, the better it's wettability. Preferably, the wetting angle is below 55°, preferably below 50° and most preferred below 47°. The wetting angle can be measured according to standard methods known in the art, e.g. by means of a goniometer. For this measurement 0.3 g of API is compressed using a KBr press (2000 kg for 2 minutes) to a moulding with a diameter of 1.25 cm. The sample is stored at 100% RH and placed on a glass frit that is kept in contact with water (Millipore quality) one hour prior to the measurement. The wetting angle is then measured on an OCA40, Dataphysics Instruments GmbH, Filderstadt, at 22° C. and about 34% RH at three different sample positions and at different drop sites (3-5 μl of water, Millipore quality) by a static measurement of advancing and receding contact angles via drop contour analysis using ellipse fit (SCA 20, Dataphysics Instruments GmbH, Filderstadt). The wetting angle is defined as the advancing contact angle. The accuracy of measurement is about ±2°.

Results on 2 substances are retold here after patent US20120015965A1, “PHARMACEUTICAL COMPOSITION COMPRISING N-[3-CHLORO-4-[(3-FLUOROPHENYL)METHOXY] PHENYL]-6-[5[[[2-(METHYLSULFONYL) ETHYL]AMINO]METHYL]-2-FURYL]-4- QUINAZOLINAMINE” (Ratiopharm GmbH, priority 2008, published 2012).

Turning to “Lapatinib ditosylate monohydrate [API used in examples 1 and 2]”, the contact angle is recorded as 56 °. Under “Lapatinib ditosylate monohydrate [API used in examples 3 to 5]” stands 45 °.
